Measurements reported in US7799778B1, “5-substituted 2-aminopyridine analogs for treating allergic and inflammatory diseases” (Alcon, Inc., priority 2005, dated 2010).

Biological target: Syk (h) (Homo sapiens, UniProt P43405)
Assay: Syk kinase activity (inhibition) assay, 33P-ATP filter assay
Format: biochemical
Conditions: 10 μM test agent; Syk (h) 5-10 mU; 40 minutes at room temperature
Method: In a final reaction volume of 25 μl, Syk (h) (5-10 mU) is incubated with 50 mM Tris pH 7.5, […], 0.1 mM Na3VO4, 0.1% β-mercaptoethanol, 0.1 mg/mL poly (Glu, Tyr) 4:1, 10 μM test agent, 10 mM Mg Acetate and [γ-^33P-ATP] (specific activity approximately 500 cpm/pmol, concentration as required). The reaction is initiated by the addition of the MgATP mix. After incubation for 40 minutes at room temperature, the reaction is stopped by the addition of 5 μl of a 3% phosphoric acid solution. 10 μl of the reaction is then spotted onto a Filtermat A and washed three times for 5 minutes in 75 mM phosphoric acid and once in methanol prior to drying and scintillation counting. Percent inhibition was calculated using the following formula:
% Control=((sample-mean no enzyme)/(mean plus enzyme−mean no enzyme))×100.

Going from `CN(C)CCN1CCN(c2ccc(-c3cc(C(F)(F)F)cc(C(F)(F)F)c3)cn2)CC1` to `CN(C)CCN1CCN(c2ccc(-c3ccc(OC(F)(F)F)cc3)cn2)CC1`, the inhibition at 10 µM falls from 56% to 30%.

Going from `CN(C)CCN(C)c1ccc(-c2ccc(Cl)cc2)cn1` to `CN(C)CCN(C)c1ccc(-c2cccc(N(C)C)c2)cn1`, the inhibition at 10 µM falls from 51% to 45%.

Compared with `CN(C)CCN(C)c1ccc(-c2ccc(F)cc2F)cn1`, `CCOc1cccc(-c2ccc(N(C)CCN(C)C)nc2)c1` is lower in inhibition at 10 µM: 45% for the first, 42% for the second.

Compared with `CCCC/C=C/c1ccc(N2CCN(CCN3CCCC3)CC2)nc1`, `CCCC/C=C/c1ccc(N2CCN(CCN(C)C)CC2)nc1` is lower in inhibition at 10 µM: 38% for the first, 31% for the second.

Going from `COc1cc(-c2ccc(N3CCN(CCN4CCCC4)CC3)nc2)cc(OC)c1OC` to `COc1cc(-c2ccc(N3CCN(CCN(C)C)CC3)nc2)cc(OC)c1OC`, the inhibition at 10 µM falls from 37% to 36%.

First: Fc1ccc(-c2ccc(N3CCN(CCN4CCCC4)CC3)nc2)c(F)c1
Second: c1cc(N2CCN(CCN3CCCC3)CC2)ncc1-c1ccc2c(c1)OCO2
The inhibition at 10 µM of the first is higher: 36% for the first, 32% for the second.

Going from `CN(C)CCN1CCN(c2ccc(/C=C/c3ccccc3)cn2)CC1` to `Oc1cccc(-c2ccc(N3CCOCC3)nc2)c1`, the inhibition at 10 µM falls from 36% to 35%.

Compared with `COc1cncc(-c2ccc(N3CCOCC3)nc2)c1`, `Fc1ccc(-c2ccc(N3CCOCC3)nc2)c(F)c1` is lower in inhibition at 10 µM: 36% for the first, 34% for the second.
